Measurements from patent publication US20230348362A1, “LIPID COMPOUNDS AND LIPID NANOPARTICLE COMPOSITIONS” (Suzhou Abogen Biosciences Co., Ltd., priority 2021, published 2023).

How the values were obtained:
Format in all cases: physicochemical
[1] = Encapsulation efficiency of lipid nanoparticles, Quant-it Ribogreen RNA assay; settings: LNP of lipid/DSPC/cholesterol/PEG-lipid 50:10:38.5:1.5 encapsulating hEPO mRNA
In short: (§1)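 LNPs made from ionizable lipid/DSPC/cholesterol/PEG-lipid (50:10:38.5:1.5) and mRNA in citrate pH 4 by microfluidic mixing, lipid:mRNA about 10:1–30:1 w/w, then dialysed into DPBS and filtered. Size and PDI measured by DLS in backscatter mode; encapsulation efficiency measured by RiboGreen assay.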

[2] = Lipid nanoparticle size and polydispersity by dynamic light scattering; settings: LNP of lipid/DSPC/cholesterol/PEG-lipid 50:10:38.5:1.5 encapsulating hEPO mRNA
In short: as §1

[3] = Apparent pKa of LNP formulations, TNS fluorescence assay; settings: LNP cationic lipid/DSPC/cholesterol/DMG-PEG 50/10/38.5/1.5 mol %
Method: As reported in literature, the apparent pKa of LNP formulations correlates with the delivery efficiency of LNPs for nucleic acids in vivo. The apparent pKa of each formulation was determined using an assay based on fluorescence of 2-(p-toluidino)-6-napthalene sulfonic acid (TNS). LNP formulations comprising of cationic lipid/DSPC/cholesterol/DMG-PEG (50/10/38.5/1.5 mol %) in PBS were prepared as described above. TNS was prepared as a 300 μM stock solution in distilled water. LNP formulations were diluted to 0.1 mg/mL total lipid in 3 mL of buffered solutions containing 50 mM sodium citrate, 50 mM sodium phosphate, 50 mM sodium borate, and 30 mM sodium chloride where the pH ranged from 3 to 9. An aliquot of the TNS solution was added to give a final concentration of […] and following vortex mixing fluorescence intensity was measured at room temperature in a Molecular Devices Spectramax iD3 spectrometer using excitation and mission wavelengths of 325 nm and 435 nm. A sigmoidal best fit analysis was applied to the fluorescence data and the pKa value was measured as the pH giving rise to half-maximal fluorescent intensity.

SMILES | Encapsulation Efficiency [1] | polydispersity [2] | size (nm) [2] | Apparent Pka [3]
CCCCCCCCC(CCCCCC)COC(=O)CCCCCN(CCO)CCN(CCCCC(COC(=O)CCCCCCC)COC(=O)CCCCCCC)C1CCCC1 (centres unmarked) [Compound 137] | 89.36% | 0.040 | 67.32 nm | 6.494
CCCCCCCCC(CCCCCC)CNC(=O)CCCCCN(CCCCCO)CCN(CCCCC(COC(=O)CCCCCCC)COC(=O)CCCCCCC)C1CCCCCCC1 (centres unmarked) [Compound 210] | 91.52% | 0.06 | 79.56 nm | 6.49
CCCCCCCCC(CCCCCCCC)COC(=O)CCCCCN(C)CCN(CCCCCC(=O)OCC(CCCCCCCC)CCCCCCCC)CCNc1c(NC)c(=O)c1=O [Compound 79] | 96.26% | 0.104 | 69.09 nm | 6.914
CCCCCCCCC(CCCCCCCC)COC(=O)CCCCCN(CC=C(C)C)CCN(CCO)CCCCCC(=O)OCC(CCCCCCCC)CCCCCCCC [Compound 42] | 90.1% | 0.046 | 66.04 nm | 6.159
CCCCCCCCC(CCCCCCCC)COC(=O)CCCCCN1CCC(N(CCO)CCCCC(COC(=O)CCCCCCC)COC(=O)CCCCCCC)CC1 [Compound 261] | 95.18% | 0.066 | 82.86 nm | 6.552
CCCCCCCCC(CCCCCCCC)COC(=O)CCCCCN(CCO)CCN(CCCCCC(=O)OCC(CCCCCCCC)CCCCCCCC)C1CCCCC1C (centres unmarked) [Compound 34] | 87.2% | 0.05 | 55.14 nm | 5.485
CCCCCCCCCOC(=O)CCCCCN(CCN(CCO)CCCCCC(=O)OCC(CCCCCCCC)CCCCCCCC)C1CCCCC1 [Compound 102] | 90.14% | 0.082 | 77.17 nm | 6.407
CCCCCCCCC(CCCCCCCC)COC(=O)CCCCCN(CCO)CCN(CCCCCC(=O)OCC(CCCCCCCC)CCCCCCCC)Cc1ccncc1 [Compound 37] | 87.2% | 0.037 | 71.53 nm | 6.988
CCCCCCCCC(CCCCCCCC)COC(=O)CCCCCN(CCO)CCCCN(CCCCCC(=O)OCC(CCCCCCCC)CCCCCCCC)C1CCC1 [Compound 86] | 95.02% | 0.043 | 86.61 nm | 6.814
CCCCCCCCC(CCCCCCCC)COC(=O)CCCCCN(C)CCN(CCO)CCCCCC(=O)OCC(CCCCCCCC)CCCCCCCC [Compound 26] | 97.57% | 0.13 | 63.47 nm | 7.024
CCCCCCCCC(CCCCCCCC)COC(=O)CCCCCN(C)CCN(CCCCCC(=O)OCC(CCCCCCCC)CCCCCCCC)C1CCC(O)CC1 (centres unmarked) [Compound 51] | 97.0% | 0.028 | 83.92 nm | 6.579
CCCCCCCCC(CCCCCCCC)CC(=O)NCCCCCN(CCN(CCO)CCCCCOC(=O)CC(CCCCCCCC)CCCCCCCC)C1CCC1 [Compound 61] | 95.4% | 0.026 | 66.08 nm | 6.731
CCCCCCCCC(CCCCCC)COC(=O)CCCCCN(CCCCN(CCO)CCCCC(COC(=O)CCCCCCC)COC(=O)CCCCCCC)C1CCCCC1 (centres unmarked) [Compound 192] | 90.40% | 0.109 | 82.66 nm | 6.707
CCCCCCCCC(CCCCCCCC)CNC(=O)CCCCCN(CCO)CCN(CCCCCC(=O)NCC(CCCCCCCC)CCCCCCCC)C1CCCC1 [Compound 12] | 89.5% | 0.062 | 58.17 nm | 6.685
CCCCCCCC(=O)OCC(CCCCN(CCO)CCCCN(CCCCC(COC(=O)CCCCCCC)COC(=O)CCCCCCC)C1CCCC1)COC(=O)CCCCCCC [Compound 181] | 94.10% | 0.154 | 119.3 nm | 6.995
CCCCCCCCCCCC(=O)OCCCCCN(CCN(CCO)CCCCCOC(=O)CC(CCCCCCCC)CCCCCCCC)C1CCCCCCC1 [Compound 95] | 92.04% | 0.103 | 55.48 nm | 6.271
CCCCCCCCC(CCCCCCCC)COC(=O)CCCCCN(CCO)CCN(CCCCC)CCCCCC(=O)OCC(CCCCCCCC)CCCCCCCC [Compound 124] | 94.60% | 0.111 | 59.55 nm | 5.997
CCCCCCCCCCCC(=O)OCCCCCN(CCN(CCO)CCCCCOC(=O)CC(CCCCCCCC)CCCCCCCC)C1CCCCC1 [Compound 57] | 91.7% | 0.044 | 79.95 nm | 6.509
CCCCCCCCCCCOC(=O)CCCCCN(CCN(CCO)CCCCCC(=O)OCC(CCCCCCCC)CCCCCCCC)C1CC(OC)C1 (centres unmarked) [Compound 54] | 93.4% | 0.065 | 77.99 nm | 6.51
CCCCCCCCCCCC(=O)OCC(CCCCN(CCO)CCN(CCCCC(COC(=O)CCCCCCCCCCC)COC(=O)CCCCCCCCCCC)C1CCC1)COC(=O)CCCCCCCCCCC [Compound 169] | 89.88% | 0.153 | 73.05 nm | 6.447
CCCCCCCCC(CCCCCC)CNC(=O)CCCCCCN(CCO)CCN(CCCCC(COC(=O)CCCCCCC)COC(=O)CCCCCCC)C1CCCC1 (centres unmarked) [Compound 230] | 89.65% | 0.051 | 89.46 nm | 6.742
CCCCCCCCCCCCCCCCOC(=O)CCCCCN(CCN(CCO)CCCCCC(=O)OCC(CCCCCCCC)CCCCCCCC)C1CCCCCCC1 [Compound 131] | 92.18% | 0.121 | 56.62 nm | 6.255
CCCCCCCCC(CCCCCC)COC(=O)CCCCCN(CCCCN(CCO)CCCCC(COC(=O)CCCCCCC)COC(=O)CCCCCCC)C1CCCC1 (centres unmarked) [Compound 191] | 93.35% | 0.117 | 86.61 nm | 6.552
CCCCCCCCCCCCCCN(CCCCCCCCCCCCCC)C(=O)CCCCCN(CCO)CCN(CCCCCC(=O)OCCCCCCCCCCC)C1CCCCC1 [Compound 89] | 89.05% | 0.086 | 81.46 nm | 6.745
CCCCCCCCC(CCCCCC)CNC(=O)CCCCCCCN(CCO)CCN(CCCCC(COC(=O)CCCCCCC)COC(=O)CCCCCCC)C1CCCC1 (centres unmarked) [Compound 234] | 88.68% | 0.035 | 67.07 nm | 6.566
CCCCCCCCC(CCCCCCCC)COC(=O)CCCCCN(CCO)CCN(CCCCCC(=O)OCC(CCCCCCCC)CCCCCCCC)Cc1ccc([N+](=O)[O-])cc1 [Compound 38] | 89.8% | 0.092 | 54.42 nm | 6.253
